In patent US10995225B2, “Macrocyclic polyphenols for universal coatings” (The Regents of the University of California, priority 2016, dated 2021):

Experiments:
[1] = Sessile Contact Angle / wettability of coated PDMS; assay type: physicochemical
Procedure: Sessile Contact Angle: 2 μL drops were placed on planar samples prepared as in the previous section. Contact angles were measured using Ramé-Hart Droplmage analysis software and hardware setup.

[2] = Coating stability assay: coated substrates incubated overnight in PBS at 36° C.; assay type: physicochemical
Procedure: Coating Compositions and Stability Assays. A macrocyclic compound (1 mg/mL) was dissolved in DMSO. To this solution was added to 10 mM to 1.5 M salts in aqueous buffer (pH 4-10). Various substrates were coated by dipping the substrates in the coating mixture (e.g., see FIGS. 12-16) and the stability of the coating compositions were tested by incubating the coated substrates in PBS at 36° C. overnight (e.g., see FIG. 7-16). […] For example, 1 mg/mL of the arene were dissolved in DMSO (10 volume % of the total coating solution). To this solution the buffered aqueous solution containing the salt of choice and the buffer (90% of total coating solution) was added. Then the pH was adjusted using HCl or NaOH solutions. The solution was transferred to a glass vial and the different substrates where added. The vial was sealed and placed on a rocking platform for 24 h. The substrate was rinsed with DI H2O then dried with a N2 flow. Buffers used included Na2CO3 (pH 11), bicine (ph 8-9), bis-tris (pH 6-7), tris (pH 7), sodium acetate (pH 4-5). The Buffer concentration used were between 0.1 and 2.2 M. Salt concentration used were between 0 and 1.5 M.

Row | Structure (SMILES) | wettability of PDMS [1] | optimal pH for coating stability ([2]; 0.2M MgCl2 in Bicine buffer) | optimal salt concentration for coating stability ([2]; CaCl2 in Gly buffer) [M] | optimal salt concentration for coating stability ([2]; MgCl2, pH 8.5, Bicine buffer) [M] | optimal pH for coating stability ([2]; pH screen, MgCl2 salt)
1 | Oc1cccc(O)c1O [pyrogallol] | increase the wettability of PDMS |  |  |  | 
2 | Oc1ccc(C2c3cc(c(O)cc3O)C(c3ccc(O)c(O)c3)c3cc(c(O)cc3O)C(c3ccc(O)c(O)c3)c3cc(c(O)cc3O)C(c3ccc(O)c(O)c3)c3cc2c(O)cc3O)cc1O [D-D macrocycle] |  | 8.5 | 0.5 | 0.5 | 8.0
